Test results published in patent US11578078B2, “Heterocyclic RIP1 inhibitory compounds” (Rigel Pharmaceuticals, Inc., priority 2019, dated 2023).

Assay: in vivo pharmacokinetics, plasma and brain exposure
Set-up: species or system rodents

| Structure (SMILES) | Ratio (Brain/Plasma) (brain AUC0-6 / plasma AUC0-6) | PLASMA CI | BRAIN AUC0-6 (brain) | Kp (rodents, brain AUC0-6 / plasma AUC0-6, read-out: Ratio (Brain/Plasma)) |
| --- | --- | --- | --- | --- |
| CN1C(=O)[C@@H](NC(=O)c2nn(Cc3ccccc3)cc2F)COc2ccc(N3CCC4(CCOCC4)C3)cc21 [Compound I-1, (S)-1-benzyl-4-fluoro-N-(5-methyl-4-oxo-7-(8-oxa-2-azaspiro[4.5]decan-2-yl)-2,3,4,5-tetrahydrobenzo[b][1,4]oxazepin-3-yl)-1H-pyrazole-3-carboxamide] | 0.46 | 16.4 | – | – |
| CN1C(=O)[C@@H](NC(=O)c2nn(Cc3ccccc3)cc2F)COc2ccc(N3CC4(CCOCC4)C3)cc21 [Compound I-2, (S)-1-benzyl-4-fluoro-N-(5-methyl-4-oxo-7-(7-oxa-2-azaspiro[3.5]nonan-2-yl)-2,3,4,5-tetrahydrobenzo[b][1,4]oxazepin-3-yl)-1H-pyrazole-3-carboxamide] | – | 57.7 | 157 | 0.56 |
| CN1C(=O)[C@@H](NC(=O)n2cc(Cc3ccc(F)cc3)cn2)COc2ccc(N3CC4(CCOCC4)C3)cc21 [Compound I-3, (S)-4-(4-fluorobenzyl)-N-(5-methyl-4-oxo-7-(7-oxa-2-azaspiro[3.5]nonan-2-yl)-2,3,4,5-tetrahydrobenzo[b][1,4]oxazepin-3-yl)-1H-pyrazole-1-carboxamide] | 0.93 | 19.0 | – | – |
